tested on: Osteoblasts (Calvarial cells); assay: Cytotoxicity test (MTT); conditions: 1 μM compound, 72 hours, in comparison with vehicle control

Compound	Cell viability (%) Calvarial cell [%]
O=[N+]([O-])c1ccc(NCc2ccncc2)nc1Nc1ccc(N2CCCC(CO)C2)c(F)c1 (centres unmarked) [Compound 286, 2-{[3-fluoro-4-(3-hydroxymethylpiperidino)]phenylamino}-6-[(4-pyridyl)methylamino]-3-nitropyridine]	123
O=[N+]([O-])c1ccc(NCCc2ccccn2)nc1Nc1ccc(N2CCCC(CO)C2)c(F)c1 (centres unmarked) [Compound 287, 2-{[3-fluoro-4-(3-hydroxymethylpiperidino)]phenylamino}-6-[2-(2-pyridyl)ethylamino]-3-nitropyridine]	103
O=[N+]([O-])c1ccc(NC2CC2)nc1Nc1ccc(N2CCCC(CO)C2)c(F)c1 (centres unmarked) [Compound 288, 2-{[3-fluoro-4-(3-hydroxymethylpiperidino)]phenylamino}-6-(cyclopropylamino)-3-nitropyridine]	103
CNc1ccc([N+](=O)[O-])c(Nc2ccc(N3CCC(C(N)=O)CC3)c(F)c2)n1 [Compound 289, 2-{[3-fluoro-4-(4-carbamoylpiperidino)]phenylamino}-6-(methylamino)-3-nitropyridine]	115
CC(C)Nc1ccc([N+](=O)[O-])c(Nc2ccc(N3CCC(C(N)=O)CC3)c(F)c2)n1 [Compound 290, 2-{[3-fluoro-4-(4-carbamoylpiperidino)]phenylamino}-6-(isopropylamino)-3-nitropyridine]	119
CC(C)CNc1ccc([N+](=O)[O-])c(Nc2ccc(N3CCC(C(N)=O)CC3)c(F)c2)n1 [Compound 291, 2-{[3-fluoro-4-(4-carbamoylpiperidino)]phenylamino}-6-(isobutylamino)-3-nitropyridine]	87
CC(C)(C)Nc1ccc([N+](=O)[O-])c(Nc2ccc(N3CCC(C(N)=O)CC3)c(F)c2)n1 [Compound 292, 2-{[3-fluoro-4-(4-carbamoylpiperidino)]phenylamino}-6-(t-butylamino)-3-nitropyridine]	102
NC(=O)C1CCN(c2ccc(Nc3nc(N4CCC(O)CC4)ccc3[N+](=O)[O-])cc2F)CC1 [Compound 293, 2-{[3-fluoro-4-(4-carbamoylpiperidino)]phenylamino}-6-(4-hydroxypiperidino)-3-nitropyridine]	104
NC(=O)C1CCN(c2ccc(Nc3nc(N4CCNCC4)ccc3[N+](=O)[O-])cc2F)CC1 [Compound 294, 2-{[3-fluoro-4-(4-carbamoylpiperidino)]phenylamino}-6-(piperazin-1-yl)-3-nitropyridine]	95
CN1CCN(c2ccc([N+](=O)[O-])c(Nc3ccc(N4CCC(C(N)=O)CC4)c(F)c3)n2)CC1 [Compound 295, 2-{[3-fluoro-4-(4-carbamoylpiperidino)]phenylamino}-6-(4-methylpiperazin-1-yl)-3-nitropyridine]	106
NC(=O)C1CCN(c2ccc(Nc3nc(N4CCOCC4)ccc3[N+](=O)[O-])cc2F)CC1 [Compound 296, 2-{[3-fluoro-4-(4-carbamoylpiperidino)]phenylamino}-6-morpholino-3-nitropyridine]	97
NC(=O)C1CCN(c2ccc(Nc3nc(N4CCC(N)CC4)ccc3[N+](=O)[O-])cc2F)CC1 [Compound 297, 2-{[3-fluoro-4-(4-carbamoylpiperidino)]phenylamino}-6-(4-aminopiperidino)-3-nitropyridine]	107
NC(=O)C1CCN(c2ccc(Nc3nc(NCc4ccncc4)ccc3[N+](=O)[O-])cc2F)CC1 [Compound 298, 2-{[3-fluoro-4-(4-carbamoylpiperidino)]phenylamino}-6-[(4-pyridyl)methylamino]-3-nitropyridine]	108
NC(=O)C1CCN(c2ccc(Nc3nc(NCCN4CCOCC4)ccc3[N+](=O)[O-])cc2F)CC1 [Compound 300, 2-{[3-fluoro-4-(4-carbamoylpiperidino)]phenylamino}-6-[2-(morpholin-1-yl)ethylamino]-3-nitropyridine]	118
CNc1ccc([N+](=O)[O-])c(Nc2ccc(N3CCCC(C(N)=O)C3)c(F)c2)n1 (centres unmarked) [Compound 301, 2-{[3-fluoro-4-(3-carbamoylpiperidino)]phenylamino}-6-(methylamino)-3-nitropyridine]	95
CC(C)Nc1ccc([N+](=O)[O-])c(Nc2ccc(N3CCCC(C(N)=O)C3)c(F)c2)n1 (centres unmarked) [Compound 302, 2-{[3-fluoro-4-(3-carbamoylpiperidino)]phenylamino}-6-(isopropylamino)-3-nitropyridine]	103
CC(C)CNc1ccc([N+](=O)[O-])c(Nc2ccc(N3CCCC(C(N)=O)C3)c(F)c2)n1 (centres unmarked) [Compound 303, 2-{[3-fluoro-4-(3-carbamoylpiperidino)]phenylamino}-6-(isobutylamino)-3-nitropyridine]	102
CC(C)(C)Nc1ccc([N+](=O)[O-])c(Nc2ccc(N3CCCC(C(N)=O)C3)c(F)c2)n1 (centres unmarked) [Compound 304, 2-{[3-fluoro-4-(3-carbamoylpiperidino)]phenylamino}-6-(t-butylamino)-3-nitropyridine]	103
NC(=O)C1CCCN(c2ccc(Nc3nc(N4CCC(O)CC4)ccc3[N+](=O)[O-])cc2F)C1 (centres unmarked) [Compound 305]	107
NC(=O)C1CCCN(c2ccc(Nc3nc(N4CCNCC4)ccc3[N+](=O)[O-])cc2F)C1 (centres unmarked) [Compound 306, 2-{[3-fluoro-4-(3-carbamoylpiperidino)]phenylamino}-6-(piperazin-1-yl)-3-nitropyridine]	122
CN1CCN(c2ccc([N+](=O)[O-])c(Nc3ccc(N4CCCC(C(N)=O)C4)c(F)c3)n2)CC1 (centres unmarked) [Compound 307, 2-{[3-fluoro-4-(3-carbamoylpiperidino)]phenylamino}-6-(4-methylpiperazin-1-yl)-3-nitropyridine]	131
NC(=O)C1CCCN(c2ccc(Nc3nc(N4CCOCC4)ccc3[N+](=O)[O-])cc2F)C1 (centres unmarked) [Compound 308, 2-{[3-fluoro-4-(3-carbamoylpiperidino)]phenylamino}-6-morpholino-3-nitropyridine]	109
NC(=O)C1CCCN(c2ccc(Nc3nc(N4CCC(N)CC4)ccc3[N+](=O)[O-])cc2F)C1 (centres unmarked) [Compound 309, 2-{[3-fluoro-4-(3-carbamoylpiperidino)]phenylamino}-6-(4-aminopiperidino)-3-nitropyridine]	110
NC(=O)C1CCCN(c2ccc(Nc3nc(NCc4cccnc4)ccc3[N+](=O)[O-])cc2F)C1 (centres unmarked) [Compound 310, 2-{[3-fluoro-4-(3-carbamoylpiperidino)]phenylamino}-6-[(3-pyridyl)methylamino]-3-nitropyridine]	97
NC(=O)C1CCCN(c2ccc(Nc3nc(NCc4ccncc4)ccc3[N+](=O)[O-])cc2F)C1 (centres unmarked) [Compound 311, 2-{[3-fluoro-4-(3-carbamoylpiperidino)]phenylamino}-6-[(4-pyridyl)methylamino]-3-nitropyridine]	98
NC(=O)C1CCCN(c2ccc(Nc3nc(NCCCn4ccnc4)ccc3[N+](=O)[O-])cc2F)C1 (centres unmarked) [Compound 312, 2-{[3-fluoro-4-(3-carbamoylpiperidino)]phenylamino}-6-[(3-imidazol-1-yl)propylamino]-3-nitropyridine]	98

Source: US20110306606A1, “NOVEL 2,6-SUBSTITUTED-3-NITROPYRIDINE DERIVATIVE, METHOD FOR PREPARING SAME, AND PHARMACEUTICAL COMPOSITION INCLUDING SAME” (priority 2008, published 2011)
